Results from US9474744B2, “Beta-lactam compounds for treating diabetes” (STEM CELL MEDICINE LTD., priority 2011, dated 2016).

Assays:
[1] = free penicillin; cited from earlier work
albumin = biological target: T1, albumin (Rattus norvegicus, UniProt P02770); test: Pen 9 western blot of rat tissue lysates after intraperitoneal penicillin G; type: in vivo; conditions: Lewis rats, 50 mg/rat intraperitoneally, 2 hours later
T1 construct: Rat tissues were ground with a tissue grinder in lysis buffer; from tissue; host or cells: various tissue lysates and serum of Lewis rats, 2 hours after i.p. penicillin G
Method: Rat tissues were ground with a tissue grinder in lysis buffer. The homogenate was centrifuged 14000 g for 15 min in 4° C. and the supernatant was used for western blotting. The protein concentration was determined using the BIO-RAD DC™ protein assay (Bio-Rad laboratories, Hercules, Calif.). Following electrophoresis in SDS gel in a mini-gel apparatus (Bio-Rad), the gels were electro-transferred to nitrocellulose membranes (Schleicher and schuell, Dassel, Germany). The nitrocellulose membranes were washed with distilled water for 5 min, and then blocked for 60 min. using a blocking solution composed of 2% bovine serum albumin (Fraction V, Sigma, St. Louis Mo.), 2.5% milk powder (Bio-Rad), Tris (Sigma) pH 7.5 10 mM, NaCl 150 mM and 0.02% thimerosal (Sigma). After 3×10 min. washes in PBS/TWEEN® 20 (PBS/T; 0.02%, Sigma), primary antibodies (1/1000) were incubated with the membranes in PBS/TWEEN® for 60 min. Following another series of washes in PBS/T (3×10 min), the membranes were incubated with a secondary antibody (Peroxidase conjugated anti rabbit or anti mouse, IgG Jackson ImmunoResearch, West Grove, Calif.) at a 1/2500 dilution in 2% milk in PBS solution for 60 min. After another 3×10 min washes, the membranes were incubated with the ECL reagent (for 60 seconds) and exposed to X-ray film. […]

[2] = biological target: T2, albumin of human CD3 T cells (Homo sapiens, UniProt P02768); test: Western blot with Pen 9 antibody of antibiotic-treated human T cells; type: cell-based; conditions: T cells activated by mitogen in presence of antibiotic
T2 construct: endogenous in cells; host or cells: primary human peripheral-blood T cells (CD3+, CD4+ or CD8+) from healthy donors
T2 sequence (P02768 25-609): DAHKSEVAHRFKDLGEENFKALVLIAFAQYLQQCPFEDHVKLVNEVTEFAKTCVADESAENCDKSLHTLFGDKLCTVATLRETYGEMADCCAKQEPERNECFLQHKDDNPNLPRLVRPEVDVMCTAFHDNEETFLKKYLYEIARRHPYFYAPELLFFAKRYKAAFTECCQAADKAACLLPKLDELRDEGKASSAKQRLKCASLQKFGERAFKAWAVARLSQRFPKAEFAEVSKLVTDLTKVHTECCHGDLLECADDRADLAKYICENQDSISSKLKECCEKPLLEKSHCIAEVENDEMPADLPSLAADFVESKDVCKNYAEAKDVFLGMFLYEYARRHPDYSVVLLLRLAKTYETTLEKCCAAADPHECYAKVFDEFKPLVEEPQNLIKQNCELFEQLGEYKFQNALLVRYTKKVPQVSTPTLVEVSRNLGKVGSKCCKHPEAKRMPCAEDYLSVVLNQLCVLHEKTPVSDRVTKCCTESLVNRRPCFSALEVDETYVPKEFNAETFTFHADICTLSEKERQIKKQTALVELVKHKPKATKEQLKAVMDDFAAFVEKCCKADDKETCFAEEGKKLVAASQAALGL
Method: Rat tissues were ground with a tissue grinder in lysis buffer. The homogenate was centrifuged 14000 g for 15 min in 4° C. and the supernatant was used for western blotting. The protein concentration was determined using the BIO-RAD DC™ protein assay (Bio-Rad laboratories, Hercules, Calif.). Following electrophoresis in SDS gel in a mini-gel apparatus (Bio-Rad), the gels were electro-transferred to nitrocellulose membranes (Schleicher and schuell, Dassel, Germany). The nitrocellulose membranes were washed with distilled water for 5 min, and then blocked for 60 min. using a blocking solution composed of 2% bovine serum albumin (Fraction V, Sigma, St. Louis Mo.), 2.5% milk powder (Bio-Rad), Tris (Sigma) pH 7.5 10 mM, NaCl 150 mM and 0.02% thimerosal (Sigma). After 3×10 min. washes in PBS/TWEEN® 20 (PBS/T; 0.02%, Sigma), primary antibodies (1/1000) were incubated with the membranes in PBS/TWEEN® for 60 min. Following another series of washes in PBS/T (3×10 min), the membranes were incubated with a secondary antibody (Peroxidase conjugated anti rabbit or anti mouse, IgG Jackson ImmunoResearch, West Grove, Calif.) at a 1/2500 dilution in 2% milk in PBS solution for 60 min. After another 3×10 min washes, the membranes were incubated with the ECL reagent (for 60 seconds) and exposed to X-ray film.

[3] = biological target: T3, 67 kDa protein of human CD4 and CD8 T cells (identified as albumin) (Homo sapiens, UniProt P02768); test: Radioactive penicillin binding assay; conditions: 10 and 20 μCi tritium-labeled, 3 days with PMA and Ionomycin; SDS-PAGE autoradiography
T3 construct: endogenous in cells; host or cells: primary human peripheral-blood T cells (CD3+, CD4+ or CD8+) from healthy donors
T3 sequence (P02768 25-609): as above
Text: Tritium labeled benzylpenicillin was obtained from Amersham (Buckinghamshire, UK; 250 μCi, 1 mCi/ml). Human CD4 or CD8 T cells were stimulated in 24 well plates, 5×10^6 cells per ml, with PMA and Ionomycin for 72 hr in the presence of 10 or 20 μCi of labeled penicillin. Following stimulation, the cells were collected, lysed and separated by SDS PAGE. The gels were fixed, treated with 1M sodium salicylate, and dried. The dried gels were exposed to x-ray film (BioMax MS film) for 14 days, with intensifying screen (BioMax TranScreen, Eastman Kodak Co., New Haven Conn., USA), and were developed.
To test whether beta-lactam antibiotics might affect T-cell behavior likewise by covalently binding a key T-cell protein, purified CD4 or CD8 human T cells were incubated with 10 and 20 μCi of tritium-labeled lactam benzylpenicillin (Amersham, Buckinghamshire, UK) for 3 days during stimulation with PMA and Ionomycin. The stimulated T cells were collected, washed, lysed and their proteins were subjected to SDS-PAGE separation. Dried gels were exposed in intensifying screens to Xray film for 2 weeks at −80° C. […] The intensity of the band was stronger at the 20 μCi concentration of penicillin.

[4] = test system: encephalitogenic BP10 line; test: Adoptive EAE: BP10 T-cell line stimulated in vitro with test substance, then injected into naive rats; type: in vivo, rat
Method: Antigen-specific T-cell lines were established from lymph node cells that had been stimulated with myelin basic protein (MBP; 10 μg/ml) for 3 days in stimulation medium as described below. Following stimulation, the T-cell blasts were isolated on LYMPHOPREP™ (Nycomed Pharma, Oslo, Norway) and seeded in propagation medium. Propagation medium was identical to stimulation medium without autologous serum, but supplemented with fetal calf serum 10% and T-cell growth factors from the supernatant of Con A stimulated spleen cells 10% (Mor et al. (1990) J Clin Invest, 85, 1594-1598). Animals were injected intra-peritoneally with 107 MBP-stimulated T cells, following 6-8 cycles of in vitro stimulations. It is known that MBP-reactive lines undergo a reduction in pathogenicity after 6 or more in vitro stimulations. In some experiments the BP10 line was stimulated with phorbol myristate acetate (PMA; 50 ng/ml) and ionomycin (500 ng/ml) for 3 days in stimulation medium, without antigen-presenting cells.
Active EAE was induced by subcutaneous injection of 25 μg guinea-pig MBP (GpMBP) in complete Freund's adjuvant (CFA). […] Adoptive EAE was transferred by intra-peritoneal injection of guinea-pig MBP-activated cells of the BP10 line as described in Mor et al. (1993) J Clin Invest, 92, 2199-2206. […] Clinical scoring was: +1, paralysis of tail; +1.5, paresis of posterior paws and ataxia; +2, paraplegia; +3, paralysis extending to thoracic spine; +4, a moribund state.
Treatment with cefuroxime in vivo could affect many different host agents involved in EAE or AA as well as influencing the rats' bacterial flora. To test whether the antibiotic might directly modify the behavior of effector T cells, an encephalitogenic T-cell line was stimulated in the presence or absence of cefuroxime in vitro. The weakly encephalitogenic BP10 line was used, and was stimulated for 3 days with MBP in the presence or absence of cefuroxime (50 μg/ml). The activated T cells were then washed to remove the antibiotic, the T cells were injected intra-peritoneally into naïve recipient rats (10^7 per rat), and EAE was scored. The BP10 line at later stimulations was used, when its pathogenic potential is reduced, allowing to detect both suppression and enhancement of disease. […] To rule out antigen presenting cells (APC) as the target of the beta-lactam antibiotic, the encephalitogenic BP10 line was stimulated without APC using PMA (50 ng/ml) and Ionomycin (500 ng/ml) in the presence or absence of cefuroxime.
Additional beta-lactam antibiotics were tested for their effect on the adoptive transfer of EAE.
A control group was injected with the untreated line.

NOD mice = test: Development of autoimmune diabetes in NOD mice; type: in vivo, mouse; conditions: at 5.7 months; s.c. at weekly intervals, ampicillin 1300 μg or ceftriaxone 675 μg per mouse; blood sugar above 300 mg/dl on 2 measurements; control 60%
Text: Inbred female Lewis rats and NOD (non-obese diabetic) mice were supplied by the animal breeding center of the Weizmann Institute of Science, Israel, under the supervision of Harlan Laboratories and were used at 2-3 months of age. Experiments were approved by the Institutional Animal Care and Use Committee. Human peripheral blood lymphocytes from healthy donors were obtained from the blood bank of Sheba Medical Center, Tel Hashomer, Israel.
NOD mice spontaneously develop diabetes mellitus similar to type I diabetes in humans. […] The mice were followed for the development of diabetes, marked by blood sugar above 300 mg/dl on 2 measurements.

Molecule: CC1(C)S[C@@H]2[C@H](NC(=O)Cc3ccccc3)C(=O)N2[C@H]1C(=O)O [penicillin, benzylpenicillin]
- half-life [1]: 42 min
- 67 kD band representing penicilloylated albumin in tissue lysates (albumin): appears in all tissues examined and is most abundant in serum
- Pen 9 reactivity with lysates of antibiotic-treated T cells [2]: reacted specifically to a major protein of the penicillin-treated T cells
- radioactive penicillin-protein band in T-cell lysates [3]: single major penicillin-protein radioactive band was detected at 67 kD

Molecule: CO/N=C(\C(=O)N[C@@H]1C(=O)N2C(C(=O)O)=C(CSc3nc(=O)c(=O)[nH]n3C)CS[C@H]12)c1csc(N)n1 [ceftriaxone]
- severity of adoptive EAE in recipient rats ([4]; BP10 line stimulated 3 days with MBP in presence of 50 μg/ml antibiotic, 10^7 cells per rat): enhanced EAE severity
- incidence of diabetes (NOD mice): 60%

B1: Penicillin-modified rat albumin: rat albumin modified with penicillin (conjugate, UniProt P02770 25-608, looked up)
Albumin: EAHKSEIAHRFKDLGEQHFKGLVLIAFSQYLQKCPYEEHIKLVQEVTDFAKTCVADENAENCDKSIHTLFGDKLCAIPKLRDNYGELADCCAKQEPERNECFLQHKDDNPNLPPFQRPEAEAMCTSFQENPTSFLGHYLHEVARRHPYFYAPELLYYAEKYNEVLTQCCTESDKAACLTPKLDAVKEKALVAAVRQRMKCSSMQRFGERAFKAWAVARMSQRFPNAEFAEITKLATDVTKINKECCHGDLLECADDRAELAKYMCENQATISSKLQACCDKPVLQKSQCLAEIEHDNIPADLPSIAADFVEDKEVCKNYAEAKDVFLGTFLYEYSRRHPDYSVSLLLRLAKKYEATLEKCCAEGDPPACYGTVLAEFQPLVEEPKNLVKTNCELYEKLGEYGFQNAVLVRYTQKAPQVSTPTLVEAARNLGRVGTKCCTLPEAQRLPCVEDYLSAILNRLCVLHEKTPVSEKVTKCCSGSLVERRPCFSALTVDETYVPKEFKAETFTFHSDICTLPDKEKQIKKQTALAELVKHKPKATEDQLKTVMGDFAQFVDKCCKAADKDNCFATEGPNLVARSKEALA
modifications: penicillin-modified
- severity of adoptive EAE mediated by the BP10 line ([4]; BP10 line stimulated 3 days with 5 mg/ml in stimulation medium, control untreated line): could also enhance the encephalogenicity of the BP10 line
